In ChEMBL document CHEMBL1127333, “Antiviral enantiomeric preference for 5'-noraristeromycin” (J Med Chem, 1994):
In brackets after ≈: the same amount, converted by molar mass.

How the values were obtained:
E6SM [1] = assay: Activity against HSV-1(KOS) virus induced cytopathicity in E6SM cells; format: functional; conditions: Homo sapiens
Vero [2] = assay: cells; conditions: Chlorocebus sabaeus
CCRF-CEM [3] = assay: Activity against HIV-1 induced cytopathicity in CEM cells; format: functional; conditions: Homo sapiens
Vero [4] = assay: Activity against semliki forest virus induced cytopathicity in Vero cells; format: functional; conditions: Chlorocebus sabaeus
MDCK [5] = assay: cells; conditions: Canis lupus familiaris
HEL [6] = assay: Activity against VZV (YS) induced cytopathicity in HEL cells; format: functional; conditions: Homo sapiens
HeLa [7] = assay: Activity against VSV virus induced cytopathicity in HeLa cells; format: functional; conditions: Homo sapiens
HeLa [8] = assay: cells; conditions: Homo sapiens
HEL [9] = assay: Activity against CMV (Davis) induced cytopathicity in HEL cells; format: functional; conditions: Homo sapiens
E6SM [10] = assay: Activity against VV virus induced cytopathicity in E6SM cells; format: functional; conditions: Homo sapiens
HeLa [11] = assay: Activity against coxsackie B4 virus induced cytopathicity in HeLa cells; format: functional; conditions: Homo sapiens
CCRF-CEM [12] = assay: Activity against HIV-2 induced cytopathicity in CEM cells; format: functional; conditions: Homo sapiens
Vero [13] = assay: cells; conditions: Chlorocebus sabaeus; remark: listed apart in the source
Homo sapiens [14] = organism: Homo sapiens; assay: Inhibitory concentration on human T-lymphocyte CEM/0 cells; format: functional, cell-based; conditions: CCRF-CEM
HEL [15] = assay: Activity against VZV (OKA) induced cytopathicity in HEL cells; format: functional; conditions: Homo sapiens
E6SM [16] = assay: Activity against HSV-2(G) virus induced cytopathicity in E6SM cells; format: functional; conditions: Homo sapiens
MDCK [17] = assay: cells; conditions: Canis lupus familiaris; remark: listed apart in the source
Vero [18] = assay: Activity against sindbis virus induced cytopathicity in Vero cells; format: functional; conditions: Chlorocebus sabaeus
[19] = tested on: Respiratory syncytial virus; assay: Activity against RSV (strain Long) virus induced cytopathicity in HeLa cells; format: functional; conditions: human respiratory syncytial virus
L1210 = assay: Inhibitory concentration on murine leukemia L1210/0 cells; format: functional, cell-based; conditions: Mus musculus
HeLa [20] = assay: Activity against parainfluenza-3 virus induced cytopathicity in HeLa cells; format: functional; conditions: Homo sapiens
Homo sapiens [21] = organism: Homo sapiens; assay: Inhibitory concentration on human T-lymphocyte Molt4 (clone 8) cells; format: functional, cell-based; conditions: MOLT-4
HEL [22] = assay: Activity against CMV (AD-169) induced cytopathicity in HEL cells; format: functional; conditions: Homo sapiens
E6SM [23] = assay: Activity against VSV virus induced cytopathicity in E6SM cells; format: functional; conditions: Homo sapiens
Vero [24] = assay: Activity against reovirus-1 induced cytopathicity in Vero cells; format: functional; conditions: Chlorocebus sabaeus
Adenosylhomocysteinase = Adenosylhomocysteinase (Mus musculus, UniProt P50247); assay: Binding affinity against L929 cells AdoHcy hydrolase activity; format: cell-based
Adenosylhomocysteinase, sequence (P50247 whole entry): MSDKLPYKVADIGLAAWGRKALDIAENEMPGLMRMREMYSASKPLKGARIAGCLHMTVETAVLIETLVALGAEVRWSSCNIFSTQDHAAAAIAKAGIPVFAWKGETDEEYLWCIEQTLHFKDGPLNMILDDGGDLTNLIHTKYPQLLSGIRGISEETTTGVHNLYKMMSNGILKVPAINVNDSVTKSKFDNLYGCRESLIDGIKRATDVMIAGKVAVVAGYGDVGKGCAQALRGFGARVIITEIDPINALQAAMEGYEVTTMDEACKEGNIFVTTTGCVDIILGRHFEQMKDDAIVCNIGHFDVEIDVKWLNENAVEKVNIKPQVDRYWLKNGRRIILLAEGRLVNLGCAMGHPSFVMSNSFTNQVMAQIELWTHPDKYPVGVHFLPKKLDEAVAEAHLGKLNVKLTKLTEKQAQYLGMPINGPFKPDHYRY

MDCK [25] = assay: Activity against influenza B virus induced cytopathicity in MDCK cells; format: functional; conditions: Canis lupus familiaris
MDCK [26] = assay: Activity against influenza A virus induced cytopathicity in MDCK cells; format: functional; conditions: Canis lupus familiaris
Homo sapiens [27] = organism: Homo sapiens; assay: Inhibitory concentration on human T-lymphocyte Molt(clone 8) cells; format: functional, cell-based

SMILES | MIC50 (E6SM [1]) [µg/mL] | MIC50 (Vero [2]) [µg/mL] | MIC50 (Vero [4]) [µg/mL] | MIC50 (HEL [6]) [µg/mL] | MIC50 (HeLa [7]) [µg/mL] | MIC50 (HeLa [8]) [µg/mL] | MIC50 (HEL [9]) [µg/mL] | MIC50 (E6SM [10]) [µg/mL] | MIC50 (HeLa [11]) [µg/mL] | MIC50 (Vero [13]) [µg/mL] | IC50 (Homo sapiens [14]) [nM] | MIC50 (HEL [15]) [µg/mL] | MIC50 (E6SM [16]) [µg/mL] | MIC50 (Vero [18]) [µg/mL] | MIC50 [19] [µg/mL] | IC50 (L1210) [nM] | MIC50 (HeLa [20]) [µg/mL] | MIC50 (HEL [22]) [µg/mL] | MIC50 (E6SM [23]) [µg/mL] | MIC50 (Vero [24]) [µg/mL] | other results
Nc1ncnc2c1ncn2[C@H]1C[C@@H](O)[C@H](O)[C@@H]1O | > 400 | 50 (≈ 199 µM) | > 400 | > 50 | 2 (≈ 7.96 µM) | > 400 | 3 (≈ 11.9 µM) | 0.7 (≈ 2.79 µM) | > 400 | 30 (≈ 119 µM) | 3990 | > 50 | > 400 | > 400 | > 200 | 5700 | 0.2 (≈ 0.796 µM) | 5 (≈ 19.9 µM) | 2 (≈ 7.96 µM) | 7 (≈ 27.9 µM) | MIC50 (CCRF-CEM [3]): > 4 µg/mL; MIC50 (MDCK [5]): > 200 µg/mL; MIC50 (CCRF-CEM [12]): > 4 µg/mL; MIC50 (MDCK [17]): > 200 µg/mL; IC50 (Homo sapiens [21]): 4650 nM
Nc1ncnc2c1ncn2[C@@H]1C=C(CO)[C@@H](O)[C@H]1O [NEOPLANOCIN A] | 70 (≈ 266 µM) | 0.4 (≈ 1.52 µM) | > 10 | 3.5 (≈ 13.3 µM) | 2 (≈ 7.6 µM) | > 10 | 0.2 (≈ 0.76 µM) | 0.2 (≈ 0.76 µM) | > 10 | 0.4 (≈ 1.52 µM) |  | 6 (≈ 22.8 µM) | > 100 | > 10 | > 1.2 |  | 0.2 (≈ 0.76 µM) | 0.2 (≈ 0.76 µM) | 2 (≈ 7.6 µM) | 0.7 (≈ 2.66 µM) | MIC50 (MDCK [5]): 1.2 µg/mL (≈ 4.56 µM); MIC50 (MDCK [17]): > 2.8 µg/mL; Ki (Adenosylhomocysteinase): 3 nM
Nc1ncnc2c1ncn2[C@@H]1C[C@H](O)[C@@H](O)[C@H]1O [NORARISTEROMYCIN] | > 400 | 8 (≈ 31.8 µM) | > 400 | > 50 | 0.2 (≈ 0.796 µM) | > 400 | 0.03 (≈ 0.119 µM) | 0.04 (≈ 0.159 µM) | > 400 | 6 (≈ 23.9 µM) | 420 | > 50 | > 400 | > 400 | > 200 | 500 | 0.07 (≈ 0.279 µM) | 0.01 (≈ 0.0398 µM) | 0.1 (≈ 0.398 µM) | 0.7 (≈ 2.79 µM) | MIC50 (CCRF-CEM [3]): > 0.16 µg/mL; MIC50 (CCRF-CEM [12]): > 0.16 µg/mL; MIC50 (MDCK [25]): > 100 µg/mL; MIC50 (MDCK [26]): > 100 µg/mL; IC50 (Homo sapiens [21]): 390 nM
Nc1ncnc2c1ncn2C1CC(O)C(O)C1O (racemic) |  |  |  |  |  |  |  |  |  |  | 680 |  |  |  |  | 630 |  |  |  |  | IC50 (Homo sapiens [27]): 580 nM; Ki (Adenosylhomocysteinase): 11.1 nM
